Data set [1] deals with Puccinia recondita f. Sp. Tritici. The experiment in a line: Puccinia recondita f. sp. tritici / wheat / leaf disc curative (brown rust). The class given is in vivo. The settings on record: foliar, 200 ppm in the applied formulation, wheat leaf segments cv. Kanzler, applied 1 day after inoculation, assessed 6 to 8 days after application, read-out: disease control compared to untreated control leaf disks. The method, then:
(§1) Leaf disks or leaf segments of various plant species are cut from plants grown in a greenhouse. The cut leaf disks or segments are placed in multiwell plates (24-well format) onto water agar. The leaf disks are sprayed with a test solution before (preventative) or after (curative) inoculation. Compounds to be tested are prepared as DMSO solutions (max. 10 mg/ml) which are diluted to the appropriate concentration with 0.025% Tween20 just before spraying. The inoculated leaf disks or segments are incubated under defined conditions (temperature, relative humidity, light, etc.) according to the respective test system. A single evaluation of disease level is carried out 3 to 14 days after inoculation, depending on the pathosystem. Percent disease control relative to the untreated check leaf disks or segments is then calculated.
Wheat leaf segments cv. Kanzler are placed on agar in multiwell plates (24-well format). The leaf segments are then inoculated with a spore suspension of the fungus. Plates were stored in darkness at 19° C. and 75% relative humidity. The formulated test compound diluted in water was applied 1 day after inoculation. The leaf segments were incubated at 19° C. and 75% relative humidity under a light regime of 12 hours light/12 hours darkness in a climate cabinet and the activity of a compound was assessed as percent disease control compared to untreated when an appropriate level of disease damage appears in untreated check leaf segments (6 to 8 days after application).
(§2) The following compounds at 200 ppm in the applied formulation give at least 80% disease control in this test when compared to untreated control leaf disks under the same conditions, which show extensive disease development.

For another data set, the system named is Phakopsora pachyrhizi. As to the kind of experiment: Phakopsora pachyrhizi / soybean / leaf disc preventative (Asian soybean rust). The class given is in vivo. The note with it: foliar, 200 ppm in the applied formulation, soybean leaf disks, inoculated one day after application, assessed 12 to 14 days after application, read-out: disease control compared to untreated control leaf disks. The method, then: as §1
Soybean leaf disks are placed on water agar in multiwell plates (24-well format) and sprayed with the formulated test compound diluted in water. One day after application leaf discs are inoculated by spraying a spore suspension on the lower leaf surface. After an incubation period in a climate cabinet of 24-36 hours in darkness at 20° C. and 75% rh leaf disc are kept at 20° C. with 12 h light/day and 75% rh. The activity of a compound is assessed as percent disease control compared to untreated when an appropriate level of disease damage appears in untreated check leaf disks (12 to 14 days after application).
as §2

Data set [2] relates to Glomerella lagenarium (Colletotrichum lagenarium). As to the kind of experiment: Glomerella lagenarium (Colletotrichum lagenarium) liquid culture / cucumber / preventative (anthracnose). In kind it is cell-based. The settings on record: Colletotrichum orbiculare; 20 ppm in the applied formulation; liquid culture in PDB, 24° C.; 3 to 4 days after application; read-out: disease control compared to untreated control (inhibition of growth measured photometrically). The method, then:
Mycelia fragments or conidia suspensions of a fungus prepared either freshly from liquid cultures of the fungus or from cryogenic storage, are directly mixed into nutrient broth. DMSO solutions of the test compound (max. 10 mg/ml) are diluted with 0.025% Tween20 by a factor of 50 and 10 μl of this solution is pipetted into a microtiter plate (96-well format). The nutrient broth containing the fungal spores/mycelia fragments is then added to give an end concentration of the tested compound. The test plates are incubated in the dark at 24° C. and 96% relative humidity. The inhibition of fungal growth is determined photometrically after 2 to 7 days, depending on the pathosystem, and percent antifungal activity relative to the untreated check is calculated.
Conidia of the fungus from cryogenic storage are directly mixed into nutrient broth (PDB—potato dextrose broth). After placing a (DMSO) solution of test compound into a microtiter plate (96-well format), the nutrient broth containing the fungal spores is added. The test plates are incubated at 24° C. and the inhibition of growth is measured photometrically 3 to 4 days after application.
The following compounds at 20 ppm in the applied formulation give at least 80% disease control in this test when compared to untreated control under the same conditions, which show extensive disease development.

Data set [3] concerns Puccinia recondita f. Sp. Tritici. As to the kind of experiment: Puccinia recondita f. sp. tritici / wheat / leaf disc preventative (brown rust). The class given is in vivo. The settings on record: foliar, 200 ppm in the applied formulation, wheat leaf segments cv. Kanzler, inoculated 1 day after application, assessed 7 to 9 days after application, read-out: disease control compared to untreated control leaf disks. The method, then: as §1, with “calculated. Wheat leaf segments cv. Kanzler were placed on agar in multiwell plates (24-well format) and sprayed with the formulated test compound diluted in water. The leaf disks were inoculated with a spore suspension of the fungus 1 day after application. The inoculated leaf segments were incubated at 19° C. and 75% relative humidity (rh) under a light regime of 12 hours light/12 hours darkness in a climate cabinet and the activity of a compound was assessed as percent disease control compared to untreated when an appropriate level of disease damage appears in untreated check leaf segments (7 to 9 days after application). The following compounds at 200 ppm in the applied formulation give at least 80% disease control in this test when compared to untreated control leaf disks under the same conditions, which show extensive disease development.” for “calculated.”

For 17 compounds, pest or weed control, melting point and inhibition results are on record in patent US20180319753A1, “MICROBIOCIDAL OXADIAZOLE DERIVATIVES” (SYNGENTA PARTICIPATIONS AG, priority 2015, published 2018).

“And” between values parts separate entries of the source, which are not always exact repeats. Equal entries are not always repeated.

In the case of `Fc1ccccc1SCc1ccc(-c2noc(C(F)(F)F)n2)cc1` [Compound 1.15, 3-[4-[(2-fluorophenyl)sulfanylmethyl]phenyl]-5-(trifluoromethyl)-1,2,4-oxadiazole], the melting point (in general, the temperature, or range, at which the solid turns liquid) was in the range of 56 to 61 °C. In addition, the pest or weed control at 200 ppm in data set [1] was not below 80%. The pest or weed control at 200 ppm in the data set with Phakopsora pachyrhizi is not below 80%.
The compound `Cc1ccc(C)c([S+]([O-])c2ccc(-c3noc(C(F)(F)F)n3)cc2)c1` (stereo not shown) [Compound 2.7, 3-[4-(2,5-dimethylphenyl)sulfinyl-phenyl]-5-(trifluoromethyl)-1,2,4-oxadiazole] returned a melting point of 103 to 109 °C. Moreover, in data set [2], the inhibition (as a rule, the share of the control response that was lost under treatment) at 20 ppm was not below 80%. The pest or weed control at 200 ppm with Phakopsora pachyrhizi was not below 80%. Besides, the pest or weed control at 200 ppm in data set [3] was not below 80%.
As for `Cc1cc(-c2noc(C(F)(F)F)n2)ccc1[S+]([O-])c1ccccc1` (stereo not shown) [Compound 2.11, 3-[4-(benzenesulfinyl)-3-methyl-phenyl]-5-(trifluoromethyl)-1,2,4-oxadiazole], the inhibition at 20 ppm in data set [2] was not below 80%. Further, the pest or weed control at 200 ppm (with Phakopsora pachyrhizi; in data set [3]) was not below 80% in each case.
For the compound `[O-][S+](c1ccc(-c2noc(C(F)(F)F)n2)cc1)c1ccc(C(F)(F)F)cc1` (stereo not shown) [Compound 2.14, 5-(trifluoromethyl)-3-[4-[4-(trifluoromethyl)phenyl]sulfinylphenyl]-1,2,4-oxadiazole], the melting point lay in the range of 94 to 100 °C. In data set [2], the inhibition at 20 ppm is not below 80%. The pest or weed control at 200 ppm in data set [3] is not below 80%.
`[O-][S+](c1ccc(-c2noc(C(F)(F)F)n2)cc1)c1c(F)cccc1F` (stereo not shown) [Compound 2.16, 3-[4-(2,6-difluorophenyl)sulfinyl-phenyl]-5-(trifluoromethyl)-1,2,4-oxadiazole] returned a melting point of 148 to 155 °C. Further, in the data set with Phakopsora pachyrhizi, the pest or weed control at 200 ppm was not below 80%. In addition, the pest or weed control at 200 ppm in data set [3] is not below 80%.
For `[O-][S+](c1ccc(-c2noc(C(F)(F)F)n2)cc1)c1ccccc1F` (stereo not shown) [Compound 2.18, 3-[4-(2-fluorophenyl)sulfinylphenyl]-5-(trifluoromethyl)-1,2,4-oxadiazole], the melting point fell in the range of 116 to 121 °C. Besides, in data set [2], the inhibition at 20 ppm was not below 80%. In addition, the pest or weed control at 200 ppm with Phakopsora pachyrhizi was not below 80%. In data set [3], the pest or weed control at 200 ppm was not below 80%.
For `[O-][S+](c1ccc(-c2noc(C(F)(F)F)n2)cc1)c1cccc(F)c1` (stereo not shown) [Compound 2.20, 3-[4-(3-fluorophenyl)sulfinylphenyl]-5-(trifluoromethyl)-1,2,4-oxadiazole], the melting point fell in the range of 103 to 111 °C. For the same compound, in data set [2], the inhibition at 20 ppm was not below 80%. Further, in the data set on Phakopsora pachyrhizi, the pest or weed control at 200 ppm was not below 80%. The pest or weed control at 200 ppm in data set [3] is not below 80%.
Regarding `Cc1ccccc1[S+]([O-])c1ccc(-c2noc(C(F)(F)F)n2)cn1` (stereo not shown) [Compound 2.25, 3-[6-(o-tolylsulfinyl)-3-pyridyl]-5-(trifluoromethyl)-1,2,4-oxadiazole], the melting point fell in the range of 103 to 105 °C. Also, in data set [2], the inhibition at 20 ppm was not below 80%. In addition, in the data set on Phakopsora pachyrhizi, the pest or weed control at 200 ppm was not below 80%. Moreover, the pest or weed control at 200 ppm in data set [3] is not below 80%.
`[O-][S+](Cc1ccc(-c2noc(C(F)(F)F)n2)c(F)c1F)c1ccccc1` (stereo not shown) [Compound 2.31, 3-[4-(benzenesulfinylmethyl)-2,3-difluoro-phenyl]-5-(trifluoromethyl)-1,2,4-oxadiazole] had a melting point of 163 to 167 °C. The inhibition at 20 ppm in data set [2] is not below 80%. In addition, in the data set with Phakopsora pachyrhizi, the pest or weed control at 200 ppm was not below 80%. Besides, the pest or weed control at 200 ppm in data set [3] was not below 80%.
Compound `COc1ccc(S(=O)(=O)c2ccc(-c3noc(C(F)(F)F)n3)cc2)cc1` [Compound 3.2, 3-[4-(4-methoxyphenyl)sulfonylphenyl]-5-(trifluoromethyl)-1,2,4-oxadiazole] showed a melting point of 108 to 116 °C. In addition, in data set [2], the inhibition at 20 ppm is not below 80%. In addition, in the data set on Phakopsora pachyrhizi, the pest or weed control at 200 ppm was not below 80%. The pest or weed control at 200 ppm in data set [3] was not below 80%.
As to `O=S(=O)(c1ccccc1)c1ccc(-c2noc(C(F)(F)F)n2)cn1` [Compound 3.7, 3-[6-(benzenesulfonyl)-3-pyridyl]-5-(trifluoromethyl)-1,2,4-oxadiazole], the melting point was 124 to 127 °C and 124 to 129 °C. Besides, the inhibition at 20 ppm in data set [2] was not below 80%. Also, the pest or weed control at 200 ppm in the data set with Phakopsora pachyrhizi is not below 80%. The pest or weed control at 200 ppm in data set [3] is not below 80%.
`O=S(=O)(c1ccc(F)cc1)c1ccc(-c2noc(C(F)(F)F)n2)cc1` [Compound 3.9, 3-[4-(4-fluorophenyl)sulfonylphenyl]-5-(trifluoromethyl)-1,2,4-oxadiazole] yielded a melting point of 144 to 149 °C. Further, in the data set on Phakopsora pachyrhizi, the pest or weed control at 200 ppm is not below 80%. Besides, the pest or weed control at 200 ppm in data set [3] is not below 80%.
Turning to `COc1ccccc1S(=O)(=O)c1ccc(-c2noc(C(F)(F)F)n2)cc1` [Compound 3.10, 3-[4-(2-methoxyphenyl)sulfonyl-phenyl]-5-(trifluoromethyl)-1,2,4-oxadiazole], the melting point lay in the range of 119 to 123 °C. Besides, in data set [3], the pest or weed control at 200 ppm was not below 80%.
The compound `O=S(=O)(c1ccc(-c2noc(C(F)(F)F)n2)cc1)c1cccc(F)c1` [Compound 3.14, 3-[4-(3-fluorophenyl)sulfonylphenyl]-5-(trifluoromethyl)-1,2,4-oxadiazole] displayed a melting point of 136 to 143 °C. Further, in data set [2], the inhibition at 20 ppm was not below 80%. For the same compound, the pest or weed control at 200 ppm in the data set on Phakopsora pachyrhizi is not below 80%. The pest or weed control at 200 ppm in data set [3] was not below 80%.
`Cc1ccccc1S(=O)(=O)c1ccc(-c2noc(C(F)(F)F)n2)cc1` [Compound 3.17, 3-[4-(o-tolylsulfonyl)phenyl]-5-(trifluoromethyl)-1,2,4-oxadiazole] showed a melting point of 109 to 115 °C. Moreover, the inhibition at 20 ppm in data set [2] is not below 80%. In data set [3], the pest or weed control at 200 ppm is not below 80%.
The compound `Cc1ccccc1S(=O)(=O)c1ccc(-c2noc(C(F)(F)F)n2)cn1` [Compound 3.18, 3-[6-(o-tolylsulfonyl)-3-pyridyl]-5-(trifluoromethyl)-1,2,4-oxadiazole] had a melting point of 66 to 68 °C. Besides, in data set [2], the inhibition at 20 ppm was not below 80%. In addition, the pest or weed control at 200 ppm in data set [3] was not below 80%.
Compound `O=S(=O)(c1ccc(-c2noc(C(F)(F)F)n2)cn1)c1ccccc1F` [Compound 3.19, 3-[6-(2-fluorophenyl)sulfonyl-3-pyridyl]-5-(trifluoromethyl)-1,2,4-oxadiazole] showed a melting point of 145 to 151 °C. Moreover, the inhibition at 20 ppm in data set [2] is not below 80%. Moreover, the pest or weed control at 200 ppm in data set [3] was not below 80%.
